Laboratory results: US12357596B2, “Compounds for prevention and treatment of obesity and related disorders” (ABREXA PHARMACEUTICALS, INC., priority 2019, dated 2025)

Test: 28-day once-daily oral gavage toxicity study with 14-day recovery (body weight, food consumption, clinical and anatomic pathology)
Format: in vivo
Conditions: for Decrease of group mean food consumption compared to Group 1 controls: Days 21 to 28
Experimental: J147 or vehicle was administered once daily to Sprague-Dawley rats via oral gavage for 28 consecutive days at a daily dose of 0, 30, 100 or 300 mg/kg. J174 was prepared in a vehicle formulation comprising 5% ethanol, 5% DMSO and 90% corn oil (v/v/v). Certified rodent diet and water was available ad libitum. Groups 1-4 contained 10 animals/sex/group. Groups 1 (control) and 4 (high dose) also included an additional 5 animals/sex/group for use as recovery animals. The recovery animals were maintained on study for a 14-day postdosing recovery period. Animals in Groups 1-4 were monitored for morbidity and mortality, clinical signs, detailed clinical observations, body weight, food consumption, ophthalmologic parameters, neurobehavioral assessment consisting of a Functional Observational Battery (FOB) and a motor activity test, hematology, coagulation, serum chemistry, and urinalysis parameters. Postmortem assessment included necropsy, measurement of selected organ weights, and microscopic evaluation of a standard set of tissues. Plasma samples for bioanalysis were collected on Days 1 and 28 from satellite toxicokinetic animals in Groups 5 through 8. Animals in these groups were euthanized following the last blood sampling and carcasses were discarded without examination. The study protocol is shown below in Table 1.

[1] = male rats, 30 mg/kg/day, Day 14 → 21
[2] = male rats, 30 mg/kg/day, Day 21 → 28
[3] = male rats, 30 mg/kg/day, Day −1 → 7
[4] = male rats, 100 mg/kg/day, Day 7 → 14
[5] = male rats, 100 mg/kg/day, Day 14 → 21
[6] = male rats, 100 mg/kg/day, Day 21 → 28
[7] = male rats, 100 mg/kg/day, Day 28
[8] = male rats, 100 mg/kg/day, Day −1 → 7
[9] = male rats, 300 mg/kg/day, Day 7 → 14
[10] = male rats, 300 mg/kg/day, Day 14 → 21
[11] = male rats, 300 mg/kg/day, Day 21 → 28
[12] = male rats, 300 mg/kg/day, Day 28
[13] = male rats, 300 mg/kg/day, Day −1 → 7
[14] = rats, both sexes, 300 mg/kg/day
[15] = rats, both sexes, 100 and 300 mg/kg/day

COc1cccc(/C=N/N(C(=O)C(F)(F)F)c2ccc(C)cc2C)c1 [J147]
Mean Bodyweight Gain [1]: 39.61 g | Mean Food Consumption [1]: 25.03 | Mean Bodyweight (male rats, 30 mg/kg/day, Day 21): 430.90 g | Mean Bodyweight Gain [2]: 34.51 g | Mean Food Consumption [2]: 25.13 | Mean Bodyweight (male rats, 30 mg/kg/day, Day 28): 465.41 g | Mean Bodyweight (male rats, 30 mg/kg/day, Day −1 (pre-dose)): 285.27 g | Mean Bodyweight Gain [3]: 53.64 g | Mean Food Consumption [3]: 23.90 | Mean Bodyweight Gain (male rats, 30 mg/kg/day, Day −1 → 28): 180.14 g | Mean Bodyweight (male rats, 30 mg/kg/day, Day −2 (pre-dose)): 278.60 g | Mean Bodyweight (male rats, 100 mg/kg/day, Day 7): 335.34 g | Mean Bodyweight Gain [4]: 41.14 d^2 g | Mean Food Consumption [4]: 21.47 dd^2 | Mean Bodyweight (male rats, 100 mg/kg/day, Day 14): 376.48 g | Mean Bodyweight Gain [5]: 33.50 g | Mean Food Consumption [5]: 23.65 | Mean Bodyweight (male rats, 100 mg/kg/day, Day 21): 409.98 g | Mean Bodyweight Gain [6]: 26.89 g | Mean Food Consumption [6]: 23.73 | Decrease of group mean body weight compared to Group 1 controls [7]: 5.9% | Mean Bodyweight [7]: 436.87 g | Mean Bodyweight (male rats, 100 mg/kg/day, Day −1 (pre-dose)): 286.67 g | Mean Bodyweight Gain [8]: 48.67 g | Mean Food Consumption [8]: 23.68 | Mean Bodyweight Gain (male rats, 100 mg/kg/day, Day −1 → 28): 150.20 g | Mean Bodyweight (male rats, 100 mg/kg/day, Day −2 (pre-dose)): 278.57 g | Decrease of group mean food consumption compared to Group 1 controls (male rats, 100 mg/kg/day): 4.9% | Levels of urinary ketones (male rats, 300 mg/kg/day): increased | Mean Food Consumption (male rats, 300 mg/kg/day for 28 days, Day 28 → 35 (recovery)): 26.98 | Mean Bodyweight Gain (male rats, 300 mg/kg/day for 28 days, Day 28 → 42 (recovery)): 50.60 g | Mean Bodyweight (male rats, 300 mg/kg/day for 28 days, Day 35 (recovery)): 415.68 dd^3 g | Mean Food Consumption (male rats, 300 mg/kg/day for 28 days, Day 35 → 42 (recovery)): 28.99 | Mean Bodyweight (male rats, 300 mg/kg/day for 28 days, Day 42 (recovery)): 446.14 d^4 g | Mean Bodyweight (male rats, 300 mg/kg/day, Day 7): 321.93 dd^2 g | Mean Bodyweight Gain [9]: 28.89 dd^3 g | Mean Food Consumption [9]: 20.24 dd^2 | Mean Bodyweight (male rats, 300 mg/kg/day, Day 14): 350.83 dd^2 g | Mean Bodyweight Gain [10]: 21.21 dd^3 g | Mean Food Consumption [10]: 21.50 dd^2 | Mean Bodyweight (male rats, 300 mg/kg/day, Day 21): 372.04 dd^2 g | Mean Bodyweight Gain [11]: 16.71 dd^3 g | Mean Food Consumption [11]: 20.78 dd^2 | Decrease of group mean body weight compared to Group 1 controls [12]: 16.2% | Mean Bodyweight [12]: 388.75 dd^2 g | Mean Bodyweight (male rats, 300 mg/kg/day, Day −1 (pre-dose)): 287.50 g | Mean Bodyweight Gain [13]: 34.43 dd^3 g | Mean Food Consumption [13]: 19.83 dd^2 | Mean Bodyweight Gain (male rats, 300 mg/kg/day, Day −1 → 28): 101.25 dd^3 g | Mean Bodyweight (male rats, 300 mg/kg/day, Day −2 (pre-dose)): 278.97 g | Decrease of group mean food consumption compared to Group 1 controls (male rats, 300 mg/kg/day): 16.7% | Mean serum triglyceride concentrations (male rats, 100 and 300 mg/kg/day): Decreased | Group mean weight gain from Day −1 to 28 (male rats, Group 2 (30 mg/kg/day)): 180 grams | Group mean weight gain from Day −1 to 28 (male rats, Group 3 (100 mg/kg/day)): 150 grams | Group mean weight gain from Day −1 to 28 (male rats, Group 4 (300 mg/kg/day)): 101 grams | Effects on serum triglyceride concentrations and red cell mass at the end of the 14-day recovery period (rats previously administered 300 mg/kg/day for 28 days): persisted | Alterations considered related to test article administration (rats, 30 mg/kg/day): no alterations | Organ weight, macroscopic or microscopic findings after recovery (rats, 300 mg/kg/day, Day 43 following 2-week treatment-free recovery): no J147-related organ weight, macroscopic or microscopic findings | Recovery of body weight and body weight gain (rats, 14-day recovery period): Full recovery | Motor activity portion of the Functional Observational Battery (FOB) (rats, Day 1, males at all dose levels, females at 100 and 300 mg/kg/day, not considered adverse): general decrease in activity | Subacute perivascular inflammation in the liver (microscopic) [14]: noted | Thymic lymphoid depletion [14]: noted | lowest-observed-adverse-effect-level (LOAEL) (rats, both sexes, 28-day oral gavage): 100 mg/kg/day | Body weight, body weight gain, and food consumption [15]: decreased | Food consumption compared to Group 1 controls [15]: decreased | Group mean thymus weights [15]: Decreases | Hepatocellular hypertrophy (microscopic) [15]: seen | Prothrombin time (rats, both sexes, all dose levels): decreased | Mean platelet and reticulocyte counts (rats, end of 28-day treatment, all dose levels, both sexes): increased | Mean red blood cell counts, hematocrit, and hemoglobin values (rats, end of 28-day treatment, males at all dose levels, females at 100 and 300 mg/kg/day): decreased | Terminal necropsy findings (rats, one or two animals at 300 mg/kg/day): enlarged liver and small thymus | J147-related effects on body weight and food consumption following cessation of treatment (rats, recovery period): reversible | Noteworthy clinical observations during the 28-day treatment period (rats, some animals of both sexes, 300 mg/kg/day): soft feces | Incidence of single cell necrosis of acinar cells in the pancreas (rats, both sexes at 300 mg/kg/day, males at 100 mg/kg/day): increased | Mean serum glucose concentrations (rats, males at 100 mg/kg/day, both sexes at 300 mg/kg/day): Decreased | Group mean liver weights (rats, males at all dose levels, females at 100 and 300 mg/kg/day): increased
